In PMC11763059, “GENI as an AMPK Activator Binds α and γ Subunits and Improves the Memory Dysfunction of Alzheimer’s Disease Mouse Models via Autophagy and Neuroprotection” (Antioxidants, 2025):

Columns and labels:
AMPK = test: CETSA with cerebral cortex and hippocampus protein of mice; type: binding; conditions: cerebral cortex and hippocampus of mice brains
Experimental: In a 60 mm dish containing 5 mL of DMEM, 2 × 10^6 cells were added and incubated for 24 h. In each plate, 10 μM GENI was added and incubated for 2 h. Cells were harvested and heated at a temperature ranging from 60 °C to 80 °C for PC12 cell samples. We obtained a certain amount of cerebral cortex and hippocampus samples, which were added with PBS and ground. After centrifugation, the supernatant was used as a sample, and we measured the protein concentration with a BCA kit (CoWin Biotech Co., Ltd., Taizhou, Jiangsu, China). The protein of the cerebral cortex or hippocampus was incubated with 10 μM GENI at 37 °C for 2 h and heated from 65 °C to 100 °C for the cerebral cortex sample but 43 °C to 67 °C and 65 °C to 100 °C for the hippocampus sample. Equal volumes of supernatant heated at each temperature point for the control and treatment groups were used for Western blot analysis with the antibody for specific proteins.

PC12 cells [1] = test: Total SOD enzymatic activity assay in PC12 cells; type: cell-based; conditions: compared with the H2O2-treated group
Experimental: (§1) To determine ROS levels in PC12 cells, we seeded 5 × 10^4 PC12 cells in each well of a 24-well plate. Cells were treated with RES (10 μM) or GENI (1, 3, and 10 μM) for 24 h, followed by 0.8 mM H2O2 for 1 h. DCFH-DA (2,7-dichlorodihydrofluorescein diacetate, final concentration, 10 μM) was then added to each well and incubated for 30 min. Cells were washed with PBS to remove extracellular DCFH-DA, and intercellular ROS was detected by using a SpectraMax M3 multimode microplate reader (Molecular Devices Corporation, San Jose, CA, USA) at an excitation wavelength of 488 nm and an emission wavelength of 525 nm. Meanwhile, DCF in PC12 cells was observed using a fluorescence microscope (HCS, Thermo Fisher, Science, Waltham, MA, USA). To detect malondialdehyde (MDA) content and total SOD enzymatic activities in PC12 cells, we seeded 2 × 10^6 PC12 cells in 60 mm dishes containing 5 mL of DMEM and cultured the cells for 24 h. PC12 cells were treated with RES (10 μM) or GENI (3 or 10 μM) for 24 h and then treated with 0.8 mM H2O2 for 1 h to determine the MDA content and total superoxide dismutase (SOD) activities. Cells were lysed and centrifuged. […] MDA quantification and total SOD activities were determined using MDA and SOD enzyme activity assay kits (Nanjing Jiancheng Bioengineering Institute, Nanjing, China) following the manufacturer’s instructions.

PC12 cells [2] = test: ROS assay (DCFH-DA) in PC12 cells; type: cell-based; conditions: GENI 1, 3 and 10 μM 24 h, 0.8 mM H2O2 1 h
Experimental: as §1

natural aging AD mice = test: Immunohistochemistry and Western blot of brain in naturally aged AD mice; type: in vivo; conditions: GENI 25 mg/kg, compared with aged group
Experimental: Each group had 10 mice. GENI was dissolved in ultrapure water and administered by gavage, whereas Dor was dissolved in normal saline. The pH was adjusted to pH 5 with 0.1 M hydrochloric acid to the clarified solution and administered by intraperitoneal injection. The dosing experiment also lasted 10 weeks. Animal behavioral experiments and sampling at the end of the animal experiment were performed as described above.
(§2) Firstly, the three mice of each group were subjected to heart perfusion at the end of the animal experiment, and the whole brain was removed and placed in 15 mL of 4% paraformaldehyde and stored at 4 °C for 24 h. Secondly, we changed 4% paraformaldehyde into 15% sucrose solution and stored the solution at 4 °C for 24 h. We then changed the solution to 30% sucrose solution to dehydrate for 2 days. Thirdly, the mouse brain tissue was embedded in a cryo-embedding medium, and about 80 slices with a thickness of 20 μm were cut in the hippocampus using a cryostat (Thermal Fisher, Shanghai, China). The sections of mice in each group were immunohistochemically stained with primary antibodies, such as neuronal nuclear anti gen (NeuN), ionized calcium-binding adapter molecule 1 (Iba-1), inducible nitric oxide synthase (iNOS, pro-inflammatory factors), synaptophysin (Syp), and glial fibrillary acidic protein (GFAP), and secondary antibody. The product number and usage ratios of primary and secondary antibodies are detailed in Supplementary Table S4. Finally, the sections were observed under an upright two-photon confocal microscope (Olympus BX61, Tokyo, Japan) and recorded by a camera. The pictures were digitized with ImageJ software V1.8.0.112 (National Institutes of Health, Bethesda, MD, USA).
Western blot analysis for p-AMPK α, AMPK α, p-mTOR, mTOR, p-ULK1, ULK1, and LC3-I/II was conducted according to the information described in the materials and methods section of Supplementary Information.
1.3. Western blot analysis. […]
The supernatants of each group were used as protein samples. For animal samples, an appropriate amount of tissue, such as cerebral cortex and hippocampus (50–100 mg), of each group was weighed, and we added lysis buffer with 1:9 ratios. After grinding and centrifuging, the supernatants of each group were used as protein samples. The protein concentration was measured with a BCA assay kit (Beijing Cowin Biotech Company, Beijing, China). Sodium dodecyl sulphate polyacrylamide gel electrophoresis (SDS-PAGE) was used to separate proteins (15 μg), which were transferred to PVDF membranes. The membrane was incubated with primary and secondary antibodies (Supplementary Table S5 for details). Antigens were visualised using a high-sensitivity chemiluminescence detection kit (Beijing Cowin Biotech Company, Beijing, China). Bands were quantitatively measured using ImageJ software (National Institutes of Health, Bethesda, MD, USA).

D-gal-induced AD mice = test: Immunohistochemistry of brain in D-gal-induced AD mice; type: in vivo; conditions: compared with the D-gal group
Experimental: Each group comprised 10 mice. […] Dosing lasted for 10 weeks. […] The mice were sacrificed after 10 weeks of administration.
as §2

PI3K = test: Drug affinity responsive target stability (DARTS), PI3K; type: binding; conditions: 0.1–100 μM GENI, protein: pronase 50:1
Experimental: Cells were lysed by RIPA lysis buffer, and the protein concentration was measured. The lysate was divided into six groups. Before incubation with protease (protein: pronase = 50:1 w/w for PI3K and AMPK detection, 5:1 for MAPK detection, 100:1 for p53 detection) for 25 min in 25 °C, 0.1–100 μM GENI was added to lysates and incubated for 2 h at room temperature. The samples were mixed with loading buffer and then separated on 8% SDS-PAGE for immunoblotting analysis.

[3] = DON 3 mg/kg, GENI 12.5, 25, 50 mg/kg groups

CC(C)CCOC(=O)C1=CO[C@@H](O[C@@H]2O[C@H](CO)[C@@H](O)[C@H](O)[C@H]2O)C2C(CO)=CCC12 (stereo partly shown) [GENI, Geniposidic 4-isoamyl ester]
stability of AMPK proteins (CETSA) (AMPK): enhanced the stability | total SOD activity (PC12 cells [1]): increased | H2O2-induced increase in ROS (PC12 cells [2]): significantly reduce | APP and Tau of hippocampus CA, DG, and cerebral cortex, Aβ and Tau phosphorylation of cerebral cortex (natural aging AD mice): significantly decreased | activation of astrocytes (GFAP) in the cerebral cortex (D-gal-induced AD mice): decreased | activation of microglia (Iba-1) in the cerebral cortex (D-gal-induced AD mice): decreased | expression of iNOS in the cerebral cortex (D-gal-induced AD mice): decreased | Syp intensity in the cerebral cortex (D-gal-induced AD mice; [3]): significantly increased | mature neurons (NeuN) in the cerebral cortex and hippocampus (D-gal-induced AD mice; [3]): significantly increased | stability of PI3K against pronase (DARTS) (PI3K): no obvious effect
